Data as given in patent US7928137B2, “Meta-benzamidine derivatives as serine protease inhibitors” (Tularik Limited, priority 1997, dated 2011).

Tests used:
trypsin = trypsin (Homo sapiens, UniProt P07477); test: Enzyme inhibition assay, trypsin (chromogenic substrate pefachrome-TRY); conditions: for trypsin pKi: room temperature, 0.1M phosphate buffer, pH7.4
thrombin = thrombin (Homo sapiens, UniProt P00734); test: Enzyme inhibition assay, thrombin (chromogenic substrate pefachrome-TH); conditions: for thrombin pKi: room temperature, 0.1M phosphate buffer, pH7.4
plasma [1] = test: Partial Thromboplastin Time Test (PT, tissue thromboplastin reagent); format: biochemical; conditions: Manchester (tissue thromboplasin) reagent, 37°
Description: Partial Thromboplastin Time Test Protocol
(§1) Venous blood was collected into 3.2% (0.109 m) trisodium citrate vacutainer tubes at 1 volume of anticoagulant to nine volumes of blood.
(§2) The blood cells were separated by centrifugation at 700 g for ten minutes to yield plasma, which was frozen at […] until required.
(§3) To perform the test, 100 μl of plasma was pipetted into in a glass test tube, 1 μl of test compound in DMSO was added, and allowed to warm to 37° over two minutes.
100 μl of warm (37°) Manchester (tissue thromboplasin) reagent (Helena Biosciences, UK) was added, allowed to equilibrate for sixty seconds. 100 μl of warm (37°) 25 mM calcium chloride solution was added to initiate clotting.
The test tube was tilted three times through a 90° angle every five seconds to mix the reagents and the time to clot formation recorded.
(§4) Data from a series of observations and test compound concentrations are analysed by a SAS statistical analysis program and a CT2 (Concentration required to double clotting time) for each compound is generated.

human factor Xa = human factor Xa (Homo sapiens, UniProt P00742); test: Enzyme inhibition assay, factor Xa (chromogenic substrate pefachrome-FXA); conditions: for FXa pKi: room temperature, 0.1M phosphate buffer, pH7.4
plasma [2] = test: Kaolin Activated Partial Thromboplastin Time Test (APTT); format: biochemical; conditions: 37°
Description: Kaolin Activated Partial Thromboplastin Time Test Protocol
as §1, §2, §3
100 μl of APTT reagent resuspended in Owren's buffer (Thrombosis Reference Centre University of Manchester, withington Hospital, Manchester) was added, mixed thoroughly, and 100 μl of prewarmed kaolin suspension in Owren's buffer added.
This mixture was incubated for ten minutes at 37°, with regular gentle mixing by tilting through a 90° angle, three times sequentially at one minute intervals to maintain the kaolin in suspension.
After ten minutes 100 μl of 25 mM calcium chloride solution was added, the suspension redispersed by mixing as above and the time to clot formation recorded.
as §4

human factor Xa, sequence (P00742 235-488 limits assumed): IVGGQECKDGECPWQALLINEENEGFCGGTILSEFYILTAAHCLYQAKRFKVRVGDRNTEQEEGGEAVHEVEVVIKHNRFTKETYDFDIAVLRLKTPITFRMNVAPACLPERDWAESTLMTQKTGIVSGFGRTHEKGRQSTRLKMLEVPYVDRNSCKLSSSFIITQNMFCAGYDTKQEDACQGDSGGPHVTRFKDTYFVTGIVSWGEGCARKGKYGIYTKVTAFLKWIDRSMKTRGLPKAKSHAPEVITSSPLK
human factor Xa, sequence (P00742 41-179 partner limits assumed): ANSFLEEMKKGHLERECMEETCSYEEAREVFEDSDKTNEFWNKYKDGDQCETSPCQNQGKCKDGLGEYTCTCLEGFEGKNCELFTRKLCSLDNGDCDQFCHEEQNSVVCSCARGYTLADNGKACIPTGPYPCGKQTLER

Compound	Ki (trypsin) [µM]	Ki (thrombin) [µM]	Ki (human factor Xa) [µM]	PT CT2 (Concentration required to double clotting time) (plasma [1]) [µM]	APTT CT2 (Concentration required to double clotting time) (plasma [2]) [µM]	thrombin pKi (thrombin)	FXa pKi (human factor Xa)	trypsin pKi (trypsin)
N=C(N)c1cccc(C(=O)N[C@@H](C(=O)N2CCC(C(=O)c3ccccc3)CC2)c2ccccc2)c1 [Example 63, 3-Amidino-benzoyl-D-phenylglycine-4-benzoyl piperidinamide]	0.288	1.1		3.7				
N=C(N)c1cccc(C(=O)N[C@@H](C(=O)NC2C3CC4CC(C3)CC2C4)c2ccccc2)c1 (stereo partly drawn) [Example 68, 3-Amidino-benzoyl-D-phenylglycine-2adamantylamide]	2.57	4.79	0.0977	17				
CC(C)[C@@H](NC(=O)[C@H](NC(=O)c1cccc(C(=N)N)c1)c1ccccc1)C(N)=O [Example 37, 3-Amidino-benzoyl-D-phenylglycinyl-D-valine amide]	1.45	17	0.162	15	36			
CC(=N)N1CCC(CCOC(=O)[C@H](NC(=O)c2cccc(C(=N)N)c2)c2ccccc2)CC1 [Example 84, 3-Amidino-benzoyl-D-phenylglycine-2-(N-acetimino-4-piperidinyl) ethyl ester]	2.45	9.12	0.0105	1.9	5.8			
C[C@@H](NC(=O)[C@H](NC(=O)c1cccc(C(=N)N)c1)c1ccccc1)c1cccc2ccccc12 [Example 80, 3-Amidino-benzoyl-D-phenylglycine-R-1-(1-naphthyl)ethylamide]	1.86	6.92	0.269					
3-Amidino-benzoyl-D-phenylglycinyl-D-2-naphthylalaninyl-glycine [Example 31]				3.2	3.7	6.98	6.80	5.56
3-Amidino-benzoyl-D-phenylglycinyl-D-2-naphthylalanine amide [Example 36]				9	9.4	6.24	7.12	6.16
3-Amidino-benzoyl-D-phenylglycinyl-D-2-naphthylalaninyl N-methylglycine [Example 32]				5.6	7.4	6.09	7.39	5.65
3-Amidino-benzoyl-D-phenylglycinyl-D-2-naphthylalaninyl-D-proline [Example 33]				7.1		6.14	7.50	6.39
3-Amidino-benzoyl-D-phenylglycinyl-D-phenylalanine-N-pyrrolidinamide [Example 66]				4.6	4.5	6.66	6.94	6.55

Now from value to compound, other results behind:

Ki (trypsin) [µM]	Ki (thrombin) [µM]	Ki (human factor Xa) [µM]	Compound	PT CT2 (Concentration required to double clotting time) (plasma [1]) [µM]	APTT CT2 (Concentration required to double clotting time) (plasma [2]) [µM]	thrombin pKi (thrombin)	FXa pKi (human factor Xa)	trypsin pKi (trypsin)
1.23		0.0871	Cc1ccc(CNC(=O)[C@H](NC(=O)c2cccc(C(=N)N)c2)c2ccccc2)cc1 [Example 64, 3-Amidino-benzoyl-D-phenylglycine-4-methylbenzylamide]	8.3	7.6	5.72		
1.62	1.17	0.0646	N=C(N)c1cccc(C(=O)N[C@@H](C(=O)NCc2cccc3ccccc23)c2ccccc2)c1 [Example 65, 3-Amidino-benzoyl-D-phenylglycine-1-naphthylmethylamide]					
0.794	5.37	0.407	N=C(N)c1cccc(C(=O)NC(C(=O)NCC2CCC(CN)CC2)c2ccc3ccccc3c2)c1 (racemic) [Example 12, 3-Amidino-benzoyl-DL-2-naphthylglycine 4-aminomethylcyclohexyl methylamide]	3.4	6.5			
1.29		0.024	N=C(N)c1cccc(C(=O)N[C@@H](C(=O)OCCC2CCN(C(=N)N)CC2)c2ccccc2)c1 [Example 87, 3-Amidino-benzoyl-D-phenylglycine-2-(N-amidino-4-piperidinyl) ethyl ester]	4.2	14	5.10		
0.245	1.02	0.0141	N=C(N)c1ccc(N)c(C(=O)N[C@@H](C(=O)NCC2CCC(CN)CC2)c2ccccc2)c1 (mixture of isomers) [Example 89, 2-Amino-5-amidinobenzoyl-D-phenylglycine-4-amlnomethylcyclohexyl methylamide]					
